Results taken from patent publication US9663451B2, “Forms of co-crystals of agomelatine and p toluenesulphonic acid, a process for their preparation and pharmaceutical compositions containing them” (LES LABORATOIRES SERVIER, priority 2013, dated 2017).

How the values were obtained:
[1] = Solubility by HPLC (external standard method) compared with agomelatine of form II; assay type: physicochemical
Description: By means of an external standard method, the compounds of Examples 1 and 2 are tested by HPLC and compared with agomelatine of form II. The results are presented in Table 4 in the form of % increase in solubility relative to the solubility of agomelatine of form II: […]

[2] = Stability of samples in incubators, determined by HPLC; assay type: physicochemical; conditions: 30 days

Solubility (increase versus agomelatine form II) in 0.1N HCl [1]	Solubility (increase versus agomelatine form II) in a buffer pH 6.8 [1]	Solubility (increase versus agomelatine form II) in water [1]	Stability ([2]; 25° C., 60% RH, open bottle)	Stability ([2]; 40° C., 75% RH, open bottle)	Stability ([2]; 50° C., closed bottle)	Stability ([2]; 70° C., closed bottle)	SMILES
+50%	+49%	+41%	Stable	Stable	Stable	Stable	COc1ccc2cccc(CCNC(C)=O)c2c1.Cc1ccc(S(=O)(=O)O)cc1.O [Compound of Example 1, Agomelatine/p-Toluenesulphonic Acid (1/1) Monohydrate Co-Crystal]
+45%	+60%	+35%	–	–	–	Stable	COc1ccc2cccc(CCNC(C)=O)c2c1.Cc1ccc(S(=O)(=O)O)cc1 [Compound of Example 2, Agomelatine/p-Toluenesulphonic Acid (1/1) Co-Crystal]
